# Where two headings read alike, the source gives them in different places.
# How the values were obtained:
# NCI-H2228 = assay: CCK-8 tumor cell proliferation, NCI-H2228; conditions: Homo sapiens, Table 15, ALK inhibitor based, read-out: IC50 inhibiting proliferation of tumor cells, NCI-H2228
# Experimental: (§1) The tumor cells used herein were cultured in a cell culture medium listed in table 4 at 37° C. in an incubator with 5% CO2. Prior to experimentation, all cells used were correctly identified by STR profiling, and tested negative for mycoplasma through routine screenings.
# (§2) IC50 values of the compounds of the present disclosure (including the compounds in Tables 1 and 3, and compounds of examples) were measured using the Meilun Cell Counting Kit-8 kit from Dalian Meilun Biotech Co., Ltd. Assay details are as follows: tumor cells were seeded in a 96-well plate at a density listed in Table 5. After 24 h, 100 μL of the inoculated cells were treated with 0.5 μL of the compounds of the present disclosure (including the compounds in Tables 1 and 3, and compounds of examples) at 10 different successively decreasing concentrations (starting at the highest concentration of 10 μM; 5-fold serial dilutions). After the cells were treated with the compounds of the present disclosure for a period of time, the cell viability detection reagent was added to the culture medium for cell viability assessment according to the instructions provided with the CCK-8 kit. […] The growth inhibition of the compounds of the present disclosure on cells was plotted by Prism Graphpad software, and the IC50 values of the compounds of the present disclosure were calculated therefrom.
# NCI-H1975 = assay: CCK-8 tumor cell proliferation, NCI-H1975; assay type: cell-based, Human; conditions: Homo sapiens; Table 15, ALK inhibitor based; NCI-H1975; read-out: IC50 inhibiting proliferation of tumor cells, NCI-H1975
# Experimental: as §1, §2
# SU-DHL-6 = assay: CCK-8 tumor cell proliferation, SU-DHL-6; assay type: cell-based, Human; conditions: 72 h
# Experimental: as §1, §2
# Mino = assay: CCK-8 tumor cell proliferation, Mino; assay type: cell-based, Human; conditions: 72 h
# How it was run: (§3)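 Proliferation was measured by CCK-8. Plated cells received compound 24 h later at ten 5-fold dilutions beginning at 10 μM.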
# HCC827 = assay: CCK-8 tumor cell proliferation, HCC827; assay type: cell-based, Human; conditions: Table 8, designed based on ER inhibitors, 96 h
# Experimental: The tumor cells used herein were cultured in a cell culture medium listed in table 4 at 37° C. in an incubator with 5% CO2.
# as §2, with “After” for “IC50 values of the compounds of the present disclosure (including the compounds in Tables 1 and 3, and compounds of examples) were measured using the Meilun Cell Counting Kit-8 kit from Dalian Meilun Biotech Co., Ltd. Assay details are as follows: tumor cells were seeded in a 96-well plate at a density listed in Table 5. After”
# MDA-MB-231 = assay: CCK-8 tumor cell proliferation, MDA-MB-231; assay type: cell-based, Human; parameters: IC50 for inhibiting the proliferation of tumor cells, MDA-MB-231: scale not given here; conditions: for IC50 for inhibiting the proliferation of tumor cells, MDA-MB-231: Table 8, designed based on ER inhibitors, 96 h
# How it was run: as §3
# Kasumi-1 = assay: CCK-8 tumor cell proliferation, Kasumi-1; assay type: cell-based, Human; conditions: for IC50 for inhibiting the proliferation of tumor cells, Kasumi-1: Table 8, designed based on ER inhibitors, 72 h; for IC50: Homo sapiens, Table 22, NTRK inhibitor based, Kasumi-1, read-out: IC50 inhibiting proliferation of tumor cells, Kasumi-1
# How it was run: as §3
# MM.1S = assay: CCK-8 tumor cell proliferation, MM.1S; assay type: cell-based; conditions: for IC50: Homo sapiens, MM1.S
# How it was run: as §3
# SW620 = assay: CCK-8 tumor cell proliferation, SW620; assay type: cell-based, Human; conditions: Table 8, designed based on ER inhibitors; 96 h
# How it was run: as §3
# T47D = assay: CCK-8 tumor cell proliferation, T47D; assay type: cell-based, Human; conditions: for IC50: Homo sapiens, T47D
# Experimental: as §1, §2
# CCRF-CEM = assay: CCK-8 tumor cell proliferation, CCRF-CEM; assay type: cell-based, Human; parameters: IC50 for inhibiting the proliferation of tumor cells, CCRF-CEM: scale not given here; conditions: for IC50: Homo sapiens, CCRF-CEM
# How it was run: as §3
# Hep3B2.7-1 = assay: CCK-8 tumor cell proliferation, Hep3B2.7-1; assay type: cell-based, Human; conditions: for IC50: Homo sapiens
# How it was run: as §3
# Jurkat = assay: CCK-8 tumor cell proliferation, Jurkat; assay type: cell-based, Human; conditions: Homo sapiens, Table 22, NTRK inhibitor based, read-out: IC50 inhibiting proliferation of tumor cells, Jurkat
# How it was run: as §3
# MM.1R = assay: CCK-8 tumor cell proliferation, MM.1R; assay type: cell-based; conditions: Table 22, NTRK inhibitor based, read-out: IC50 inhibiting proliferation of tumor cells, MM.1R
# How it was run: as §3
# SR = assay: CCK-8 tumor cell proliferation, SR; assay type: cell-based, Human; conditions: Homo sapiens; Table 15, ALK inhibitor based; SR; read-out: IC50 inhibiting proliferation of tumor cells, SR
# How it was run: as §3
# PC-9 = assay: CCK-8 tumor cell proliferation, PC-9; assay type: cell-based, Human; conditions: Homo sapiens; Table 15, ALK inhibitor based; PC-9; read-out: IC50 inhibiting proliferation of tumor cells, PC-9
# [1] = Table 14, designed based on CDK4/6 inhibitors
# [2] = Table 8, designed based on ER inhibitors, 72 h
# [3] = Table 8, designed based on ER inhibitors
# [4] = Table 8, designed based on ER inhibitors, 96 h
# [5] = Table 22, NTRK inhibitor based, MM.1S, read-out: IC50 inhibiting proliferation of tumor cells, MM.1S
# [6] = Table 22, NTRK inhibitor based, read-out: IC50 inhibiting proliferation of tumor cells, T47D
# [7] = Table 22, NTRK inhibitor based, read-out: IC50 inhibiting proliferation of tumor cells, CCRF-CEM
# [8] = Table 22, NTRK inhibitor based, HEP3B2.7-1, read-out: IC50 inhibiting proliferation of tumor cells, HEP3B2.7-1
smiles,measurement,setting,value
"COc1cc(N2CCC(N3CCN(Cc4ccc5c(c4)CN(C4CCC(=O)NC4=O)C5=O)CC3)CC2)ccc1Nc1ncc(Cl)c(Nc2ccccc2P(C)(C)=O)n1 (stereo not shown) [GT-02811, 3-(5-((4-(1-(4-((5-chloro-4-((2-(dimethylphosphoryl)phenyl)amino)pyrimidin-2-yl)amino)-3-methoxyphenyl)piperidin-4-yl)piperazin-1-yl)methyl)-1-oxoisoindolin-2-yl)piperidine-2,6-dione]",IC50,NCI-H2228,1000 to 5000 nM
same,IC50,NCI-H1975,100 to 500 nM
"Cc1nc2c(F)cc(-c3nc(Nc4ccc(N5CCC(N(C)Cc6ccc7c(c6)CN(C6CCC(=O)NC6=O)C7=O)CC5)cn4)ncc3F)cc2n1C(C)C (stereo not shown) [GT-03639, 3-(5-(((1-(6-((5-fluoro-4-(4-fluoro-1-isopropyl-2-methyl-1H-benzo[d]imidazol-6-yl)pyrimidin-2-yl)amino)pyridin-3-yl)piperidin-4-yl)(methyl)amino)methyl)-1-oxoisoindolin-2-yl)piperidine-2,6-dione]","IC50 for inhibiting the proliferation of tumor cells, SU-DHL-6",SU-DHL-6; [1],A+
same,"IC50 for inhibiting the proliferation of tumor cells, Mino",Mino; [1],A+
"O=C1CCC(N2Cc3cc(CN4CCN(c5ccc(C(=C(CCCl)c6ccc(O)cc6)c6ccc(O)cc6)cc5)CC4)ccc3C2=O)C(=O)N1 (stereo not shown) [GT-03638, 3-(5-((4-(4-(4-chloro-1,2-bis(4-hydroxyphenyl)but-1-en-1-yl)phenyl)piperazin-1-yl)methyl)-1-oxoisoindolin-2-yl)piperidine-2,6-dione]","IC50 for inhibiting the proliferation of tumor cells, HCC827",HCC827,A+
same,"IC50 for inhibiting the proliferation of tumor cells, MDA-MB-231",MDA-MB-231,A+
same,"IC50 for inhibiting the proliferation of tumor cells, Kasumi-1",Kasumi-1,A+
same,"IC50 for inhibiting the proliferation of tumor cells, MM.1S",MM.1S; [2],A+
same,"IC50 for inhibiting the proliferation of tumor cells, SU-DHL-6",SU-DHL-6; [3],A+
same,"IC50 for inhibiting the proliferation of tumor cells, SW620",SW620,A+
same,"IC50 for inhibiting the proliferation of tumor cells, T47D",T47D; [4],A+
same,"IC50 for inhibiting the proliferation of tumor cells, Mino",Mino; [3],A+
same,"IC50 for inhibiting the proliferation of tumor cells, CCRF-CEM",CCRF-CEM; [4],A+
same,"IC50 for inhibiting the proliferation of tumor cells, Hep3B2.7-1",Hep3B2.7-1; [4],A+
"O=C1CCC(N2Cc3cc(CN4CCN(c5cccc(-c6cnn7ccc(N8CCC[C@@H]8c8cc(F)ccc8F)nc67)n5)CC4)c(F)cc3C2=O)C(=O)N1 (stereo partly drawn) [GT-04264, 3-(5-((4-(6-(5-((R)-2-(2,5-difluorophenyl)pyrrolidin-1-yl)pyrazolo[1,5-a]pyrimidin-3-yl)pyridin-2-yl)piperazin-1-yl)methyl)-6-fluoro-1-oxoisoindolin-2-yl)piperidine-2,6-dione]",IC50,Jurkat,< 50 nM
same,IC50,Kasumi-1,< 50 nM
same,IC50,MM.1S; [5],< 50 nM
same,IC50,MM.1R,< 50 nM
same,IC50,T47D; [6],< 50 nM
same,IC50,CCRF-CEM; [7],< 50 nM
same,IC50,Hep3B2.7-1; [8],< 50 nM
"CN(C)C(=O)c1cc2cnc(Nc3ccc(N4CCC(N(C)Cc5ccc6c(c5)CN(C5CCC(=O)NC5=O)C6=O)CC4)cn3)nc2n1C1CCCC1 (stereo not shown) [GT-03544, 7-cyclopentyl-2-((5-(4-(((2-(2,6-dioxopiperidin-3-yl)-1-oxoisoindolin-5-yl)methyl)(methyl)amino)piperidin-1-yl)pyridin-2-yl)amino)-N,N-dimethyl-7H-pyrrolo[2,3-d]pyrimidine-6-carboxamide]","IC50 for inhibiting the proliferation of tumor cells, SU-DHL-6",SU-DHL-6; [1],A+
"CCC(=C(c1ccc(O)cc1)c1ccc(OCCNCc2ccc3c(c2)CN(C2CCC(=O)NC2=O)C3=O)cc1)c1ccc(O)cc1 (stereo not shown) [GT-03214, 3-(5-(((2-(4-(1,2-bis(4-hydroxyphenyl)but-1-en-1-yl)phenoxy)ethyl)amino)methyl)-1-oxoisoindolin-2-yl)piperidine-2,6-dione]","IC50 for inhibiting the proliferation of tumor cells, HCC827",HCC827,A+
same,"IC50 for inhibiting the proliferation of tumor cells, MDA-MB-231",MDA-MB-231,A+
same,"IC50 for inhibiting the proliferation of tumor cells, Kasumi-1",Kasumi-1,A+
same,"IC50 for inhibiting the proliferation of tumor cells, MM.1S",MM.1S; [2],A+
same,"IC50 for inhibiting the proliferation of tumor cells, SU-DHL-6",SU-DHL-6; [3],A+
same,"IC50 for inhibiting the proliferation of tumor cells, SW620",SW620,A+
same,"IC50 for inhibiting the proliferation of tumor cells, T47D",T47D; [4],A+
same,"IC50 for inhibiting the proliferation of tumor cells, CCRF-CEM",CCRF-CEM; [4],A+
same,"IC50 for inhibiting the proliferation of tumor cells, Hep3B2.7-1",Hep3B2.7-1; [4],A+
"O=C1CCC(N2Cc3cc(CN4CCN(c5cccc(-c6cnc7ccc(N8CCC[C@@H]8c8cccc(F)c8)nn67)n5)CC4)cc(F)c3C2=O)C(=O)N1 (stereo partly drawn) [GT-03867, 3-(7-fluoro-5-((4-(6-(6-((R)-2-(3-fluorophenyl)pyrrolidin-1-yl)imidazo[1,2-b]pyridazin-3-yl)pyridin-2-yl)piperazin-1-yl)methyl)-1-oxoisoindolin-2-yl)piperidine-2,6-dione]",IC50,Jurkat,< 50 nM
same,IC50,Kasumi-1,< 50 nM
same,IC50,MM.1S; [5],50 to 100 nM
same,IC50,MM.1R,< 50 nM
same,IC50,T47D; [6],100 to 500 nM
same,IC50,CCRF-CEM; [7],< 50 nM
same,IC50,Hep3B2.7-1; [8],< 50 nM
"CC/C(=C(/c1ccc(O)cc1)c1ccc(OCCN)cc1)c1ccc(O)cc1 [GT-03308, reference compound]",IC50,"HCC827; Homo sapiens, HCC827, read-out: IC50 for inhibiting the proliferation of tumor cells, HCC827",> 10000 nM
same,IC50,"MM.1S; Table 8, designed based on ER inhibitors, 72 h, read-out: IC50 for inhibiting the proliferation of tumor cells, MM.1S",> 10000 nM
same,IC50,"T47D; Table 8, designed based on ER inhibitors, 96 h, read-out: IC50 for inhibiting the proliferation of tumor cells, T47D",> 10000 nM
same,IC50,"CCRF-CEM; Table 8, designed based on ER inhibitors, 96 h, read-out: IC50 for inhibiting the proliferation of tumor cells, CCRF-CEM",> 10000 nM
same,IC50,"Hep3B2.7-1; Table 8, designed based on ER inhibitors, 96 h, read-out: IC50 for inhibiting the proliferation of tumor cells, Hep3B2.7-1",> 10000 nM
"Cc1cc(Nc2ncc(Cl)c(Nc3ccccc3S(=O)(=O)C(C)C)n2)c(OC(C)C)cc1C1CCN(Cc2ccc3c(c2)CN(C2CCC(=O)NC2=O)C3=O)CC1 (stereo not shown) [GT-02973, 3-(5-((4-(4-((5-chloro-4-((2-(isopropylsulfonyl)phenyl)amino)pyrimidin-2-yl)amino)-5-isopropoxy-2-methylphenyl)piperidin-1-yl)methyl)-1-oxoisoindolin-2-yl)piperidine-2,6-dione]",IC50,"MDA-MB-231; Homo sapiens, Table 15, ALK inhibitor based, MDA-MB-231, read-out: IC50 inhibiting proliferation of tumor cells, MDA-MB-231",500 to 1000 nM
same,IC50,SR,< 50 nM
same,IC50,PC-9,500 to 1000 nM
same,IC50,NCI-H2228,100 to 500 nM
"CCC(=C(c1ccc(O)cc1)c1ccc(N2CCN(Cc3ccc4c(c3)CN(C3CCC(=O)NC3=O)C4=O)CC2)cc1)c1ccc(O)cc1 (stereo not shown) [GT-03551, 3-(5-((4-(4-(1,2-bis(4-hydroxyphenyl)but-1-en-1-yl)phenyl)piperazin-1-yl)methyl)-1-oxoisoindolin-2-yl)piperidine-2,6-dione]","IC50 for inhibiting the proliferation of tumor cells, HCC827",HCC827,A+
same,"IC50 for inhibiting the proliferation of tumor cells, Kasumi-1",Kasumi-1,A+
same,"IC50 for inhibiting the proliferation of tumor cells, MM.1S",MM.1S; [2],A+
same,"IC50 for inhibiting the proliferation of tumor cells, SU-DHL-6",SU-DHL-6; [3],A+
same,"IC50 for inhibiting the proliferation of tumor cells, SW620",SW620,A+
same,"IC50 for inhibiting the proliferation of tumor cells, T47D",T47D; [4],A+
same,"IC50 for inhibiting the proliferation of tumor cells, Mino",Mino; [3],A+
same,"IC50 for inhibiting the proliferation of tumor cells, CCRF-CEM",CCRF-CEM; [4],A+

# Reference: patent US20260199323A1, “LIGAND COMPOUNDS FOR E3 UBIQUITIN LIGASE, PROTEIN DEGRADERS DEVELOPED ON BASIS OF LIGAND COMPOUNDS, AND USES THEREOF” (GLUETACS THERAPEUTICS (SHANGHAI) CO., LTD., priority 2021, published 2026)
